Ends that are not written are not given here. * marks the point of attachment. Man3GlcNAc2 = CC(=O)N[C@@H]1[C@@H](O)[C@H](O[C@@H]2O[C@H](CO)[C@@H](O[C@@H]3O[C@H](CO[C@H]4O[C@H](CO)[C@@H](O)[C@H](O)[C@@H]4O)[C@@H](O)[C@H](O[C@H]4O[C@H](CO)[C@@H](O)[C@H](O)[C@@H]4O)[C@@H]3O)[C@H](O)[C@H]2NC(C)=O)[C@@H](CO)O[C@H]1*

The values below come from US10286057B2, “Cyclic HIV-1 Env V3 glycopeptide immunogens” (DUKE UNIVERSITY, priority 2013, dated 2019).

Assay [1] concerns PGT128. The note with it: protein-free glycan; cited from earlier work.
For assay [2], the system named is BnAb PG9. Put plainly: SPR (Biacore) binding of V1V2 antigens to BnAb PG9. The note with it: FIG. 1B, antigen 200 μg/ml. As to the method:
(§1) FIGS. 1A-1E. Initial evaluation of synthetic V1V2 glycopeptide constructs. […] Surface plasmon reasonance (SPR) analysis of the interaction of V1V2 Man5GlcNAc2 (green), Man3GlcNAc2 (red), GlcNAc2 (blue), or aglycone (magenta) antigens with BnAbs PG9 (FIG. 1B), CH01 (FIG. 1C), or their respective umutated common ancestor (UCA) antibodies, PG9 UCA (FIG. 1D), and CH01-04 UCA (FIG. 1E). Concentration of antigens was 200 μg/ml for FIGS. […], and 100 μg/ml for FIGS. 1D and 1E, RU=response units
(§2) Using chemical methods (see, for example, those referenced above), a set of homogeneous V1V2 glycopeptides bearing Man3GlcNAc2, Man5GlcNAc2, and GlcNAc2 N-glycans were synthesized de novo (FIG. 1A). […] Importantly, binding by the naked “aglycone” (FIGS. 1B,C) or the solitary protein-free Man3 and Man5 oligosaccharides (data not shown) was not observed.
In general terms: Surface plasmon resonance follows binding to a sensor surface in real time, without labels.

Assay [3] has as its system BnAb CH01. Put plainly: SPR (Biacore) binding of V1V2 antigens to BnAb CH01. The note with it: FIG. 1C, antigen 200 μg/ml. The method, then:
as §1, §2

The next assay deals with PGTs 125-128 and 130. The note with it: cited from earlier work.
A further assay relates to 2G12. The assay is described as follows: Binding to mAb 2G12. The note with it: FIG. 13C. The text has this:
(§3) FIG. 13A-D show binding of PGT mAbs to synthetic Man9GlcNAc2 glycan. Binding of V3 Bnab to Man9 glycan. […] Thus, the binding of Man9GlcnAc2 glycan was detected only for V3-glycan dependent PGT BNAbs.
FIGS. 11-13 depict various experimental data showing that synthetic glycopeptides, such as for example the peptide of FIG. 1, can show differential binding to bnAbs vs non-neutralizing antibodies. […] Both 2G12 mAb and 2G12 UCA bound well to Man5 V1V2 dimer, indicating recognition of the glycan cluster on a V2 backbone.

For assay [4], the system named is PGT128. The assay is described as follows: SPR binding to captured mAb PGT128. The note with it: FIG. 13A. From the text: (§4) Both PGT128 and PGT125 are dependent on Man9 glycans on position N332 and N301 (Pejchal et al., 2011), with N332 being the primary glycan.
(§5) Binding of V3 Bnab to Man9 glycan.

Assay [5] deals with V3 loop non-neutralizing mAb 19b. Put plainly: SPR binding to captured V3 loop non-neutralizing mAb 19b. The note with it: FIG. 12 and FIG. 13D.
Text: as §4, §5

Another assay deals with V1V2 mAb PGT145. The assay is described as follows: Binding to V1V2 mAb PGT145. The note with it: FIG. 13D.
Text: as §3

The test system of the next assay is PGT125. The assay is described as follows: SPR binding to captured mAb PGT125. The note with it: FIG. 13B.
Text: as §4, §5

A further assay relates to CH58 UCA. The assay is described as follows: Reactivity of CH58 UCA toward V1V2 glycopeptides. The note with it: data not shown. In kind it is binding. From the text:
(§6) This is the first antigen known to bind to the PG9 UCA. […] Thus, these two V1V2 peptide-glycans have selective reactivity toward the V1V2 BnAbs, and react poorly or not at all with the CH58 mature and UCA antibodies. Therefore, these V1V2 peptide-glycan immunogens are prime candidates for selective induction of V1V2 BnAb lineages that are normally sub-dominant with infrequent UCAs.

The next assay concerns RV144 mAb CH58. Put plainly: Reactivity of RV144 mAb CH58 toward V1V2 glycopeptides. In kind it is binding. The note with it: data not shown.
Text: as §6

The test system of a further assay is PG9 UCA. Put plainly: SPR binding of V1V2 antigens to PG9 UCA. The note with it: FIG. 1D, antigen 100 μg/ml. The method, then: as §1, §6
The test system of the next assay is CH01-04 UCA. The assay is described as follows: SPR binding of V1V2 antigens to CH01 UCA. The note with it: FIG. 1E, antigen 100 μg/ml. The method, then:
as §1, §6

Assay [6] concerns BnAb PG9. The note with it: from previous work; cited from earlier work.
Assay [7] relates to BnAb CH01. The note with it: from previous work; cited from earlier work.

`CC(=O)N[C@H]1[C@H](O[C@H]2[C@H](O)[C@@H](NC(C)=O)C(O)O[C@@H]2CO)O[C@H](CO)[C@@H](O[C@@H]2O[C@H](CO[C@H]3O[C@H](CO)[C@@H](O)[C@H](O)[C@@H]3O)[C@@H](O)[C@H](O[C@H]3O[C@H](CO)[C@@H](O)[C@H](O)[C@@H]3O)[C@@H]2O)[C@@H]1O` (stereo partly drawn) [Man3 oligosaccharide, Man3GlcNAc2]: in the assay on PGT128 [1], the “binding of PGT128 on glycan arrays” value was “not observed”. Further, the “binding to BnAb PG9” value in the assay with BnAb PG9 [2] is reported as “not observed”. Further, the “binding to BnAb CH01” value in the assay with BnAb CH01 [3] is “not observed”.
Consider `CC(=O)N[C@@H]1[C@@H](O)[C@H](O[C@@H]2O[C@H](CO)[C@@H](O[C@H]3O[C@H](CO[C@H]4O[C@H](CO[C@H]5O[C@H](CO)[C@@H](O)[C@H](O)[C@@H]5O[C@H]5O[C@H](CO)[C@@H](O)[C@H](O)[C@@H]5O)[C@@H](O)[C@H](O[C@H]5O[C@H](CO)[C@@H](O)[C@H](O)[C@@H]5O)[C@@H]4O)[C@@H](O)[C@H](O[C@H]4O[C@H](CO)[C@@H](O)[C@H](O)[C@@H]4O[C@H]4O[C@H](CO)[C@@H](O)[C@H](O)[C@@H]4O[C@H]4O[C@H](CO)[C@@H](O)[C@H](O)[C@@H]4O)[C@@H]3O)[C@H](O)[C@H]2NC(C)=O)[C@@H](CO)O[C@H]1O` [Man8, reference compound], for which the “binding of PGTs 125-128 and 130 on glycan arrays” value in the assay with PGTs 125-128 and 130 is listed as “showed binding”.
Turning to `CC(=O)N[C@H]1[C@H](O[C@H]2[C@H](O)[C@@H](NC(C)=O)C(O)O[C@@H]2CO)O[C@H](CO)[C@@H](O[C@@H]2O[C@H](CO[C@H]3O[C@H](CO[C@H]4O[C@H](CO)[C@@H](O)[C@H](O)[C@@H]4O[C@H]4O[C@H](CO)[C@@H](O)[C@H](O)[C@@H]4O)[C@@H](O)[C@H](O[C@H]4O[C@H](CO)[C@@H](O)[C@H](O)[C@@H]4O[C@H]4O[C@H](CO)[C@@H](O)[C@H](O)[C@@H]4O)[C@@H]3O)[C@@H](O)[C@H](O[C@H]3O[C@H](CO)[C@@H](O)[C@H](O)[C@@H]3O[C@H]3O[C@H](CO)[C@@H](O)[C@H](O)[C@@H]3O[C@H]3O[C@H](CO)[C@@H](O)[C@H](O)[C@@H]3O)[C@@H]2O)[C@@H]1O` (stereo partly drawn) [Man9 glycan, Man9GlcNAc2], the “2G12 binding to free glycan” value in the assay on 2G12 is reported as “only detected at the highest concentration”. Further, the “binding of PGTs 125-128 and 130 on glycan arrays” value in the assay on PGTs 125-128 and 130 was “showed binding”. Further, the “affinity of PGT128 binding to free glycan” value in the assay on PGT128 [4] was “affinities in μM”. Also, in [5], the “binding to non-neutralizing V3 mAb 19b” value was “no binding”. For the same compound, in the assay on V1V2 mAb PGT145, the “binding to V1V2 mAb PGT145” value is recorded as “no binding”. In addition, the “affinity of PGT125 binding to free glycan” value in the assay with PGT125 was “affinities in μM”.
As for “Man3 construct: V1V2 glycopeptide (SEQ ID NO: 9, AE.CM244/A244) bearing two N-linked Man3GlcNAc2 at N160 and N156 (ITDEVRN(Man3GlcNAc2)CSFN(Man3GlcNAc2)MTTELRDKKQKVHALFYKLDIVPI)”, the “reactivity of CH58 UCA” value with CH58 UCA is given as “only weak reactivity”. Also, the “reactivity of mAb CH58” value in the assay with RV144 mAb CH58 is listed as “only weak reactivity”. Also, the “binding to BnAb PG9” value in the assay on BnAb PG9 [2] was “bind”. The “binding to BnAb CH01” value in the assay on BnAb CH01 [3] is “bind”. Moreover, the “affinity for PG9 UCA” value in the assay on PG9 UCA was “significant affinity”. Besides, in the assay on CH01-04 UCA, the “affinity for CH01 UCA” value is recorded as “significant affinity”.
In the case of “Man5 construct: V1V2 glycopeptide (SEQ ID NO: 9) bearing two N-linked Man5GlcNAc2 at N160 and N156 (ITDEVRN(Man5GlcNAc2)CSFN(Man5GlcNAc2)MTTELRDKKQKVHALFYKLDIVPI)”, the “reactivity of CH58 UCA” value in the assay with CH58 UCA is recorded as “almost no affinity”. The “reactivity of mAb CH58” value in the assay on RV144 mAb CH58 is “almost no affinity”. Moreover, the “binding to BnAb PG9” value with BnAb PG9 [2] was “bind”. Besides, the “binding to BnAb CH01” value with BnAb CH01 [3] was “bind”. The “affinity for CH01 UCA” value in the assay with CH01-04 UCA is “to a lesser extent”.
Regarding Man5GlcNAc2 [Man5 oligosaccharide], in the assay on BnAb PG9 [2], the “binding to BnAb PG9” value was “not observed”. The “binding to BnAb CH01” value with BnAb CH01 [3] was “not observed”.
As for “aglycone: V1V2 peptide of SEQ ID NO: 9 with zero glycans (ITDEVRNCSFNMTTELRDKKQKVHALFYKLDIVPI)”, in the assay on BnAb PG9 [2], the “binding to BnAb PG9” value is “not observed”. Further, the “binding to BnAb CH01” value in the assay with BnAb CH01 [3] is on record as “not observed”. Also, in the assay with BnAb PG9 [6], the “binding to PG9” value is “did not show binding”. Further, in the assay with BnAb CH01 [7], the “binding to CH01” value is recorded as “did not show binding”.
